{
  "source": "patent US20070104644A1",
  "about": "“Inhibitor imaging agents” (priority 2003, published 2007)",
  "key": {"[1]": {"test": "In vitro rat plasma stability", "assay_type": "in vitro ADME", "protocol": "Plasma and in vivo stability studies were performed with Compound 24A to determine the stability and metabolism of the compound."}, "[2]": {"tested_on": "Lewis lung carcinoma (LLC) tumour", "test": "Biodistribution in LLC tumour model in vivo", "parameters": "species or system C57BL/6 mice", "protocol": "1×10^6 Lewis lung carcinoma (LLC) cells are injected subcutaneously into right inner thigh of C57BL/6 mice. Tumours were allowed to grow for 15 days prior to biodistribution being carried out.\nBiodistribution studies were performed in the LLC tumour model.\nBiodistribution was performed in the LLC tumour model of Example 23 with Compounds 46B and 48B."}, "[3]": {"tested_on": "ApoE −/− mice, carotid artery", "test": "Biodistribution in ApoE ligation model of atherosclerosis (ligated and sham)", "assay_type": "in vivo", "description": "ApoE −/− mice are transgenic knock-out mice, which lack the ApoE gene, and are therefore unable to regulate their plasma cholesterol levels. As a consequence ApoE mice develop atherosclerotic lesions, a process which is accelerated with feeding of high fat diet. Further acceleration of lesion development can be achieved by ligating the carotid artery, resulting in advanced lesion formation within 4 weeks of surgery and high fat diet feeding.\nTwo controls have been used for these experiments: (1) ApoE sham animals in which the mice undergo the same surgical intervention but the sture is only passed beneath the carotid and then removed and, (2) C57BL/6 ligtaed animals which undergo the same surgical ligation and high fat feeding as the ApoE ligated mice. Literature reports have stated that these animals do have some level of tissue remodelling, but with lower active MMP levels [Ivan et al, Circulation, 105, 2686-2691 (2002)]."}, "[4]": {"test": "In vivo stability and metabolism in the rat", "description": "Only plasma and bile samples could be analysed due to insufficient radioactivity within the urine."}, "[5]": {"tested_on": "MDA-MB-231 tumour (human breast carcinoma xenograft)", "test": "Imaging in MDA-MB-231 tumour model in vivo", "protocol": "Imaging was performed with Compound 24A in the MDA-MB-231 tumour model (a human breast carcinoma xenograft model). […] 1999 May;17(3):231-8; • Lee et al, Eur. J Cancer, 2001; 37:106-113. • Weber et al Int J Oncol."}, "[6]": {"conditions": "ApoE Ligated, 5 min post injection"}, "[7]": {"conditions": "ApoE Ligated, 60 min post injection"}, "[8]": {"conditions": "ApoE Sham, 60 min post injection"}},
  "data": [
    {"compound": "O=C(CCN(C1(C(=O)NO)CCCC1)S(=O)(=O)c1ccc(Oc2ccc(F)cc2)cc1)NCCc1ccc(O)c([123I])c1", "note": "[Compound 24A]", "values": [
      {"measurement": "In vitro rat plasma stability", "setting": "[1]; 2 hours, 37° C.", "value": "good stability"},
      {"measurement": "RCP of parent compound", "setting": "[1]; start of incubation at 37° C.", "value": 93, "unit": "%"},
      {"measurement": "RCP of parent compound", "setting": "[1]; through 2 hours incubation at 37° C.", "value": 80, "unit": "%"},
      {"measurement": "Background tissue uptake", "setting": "[2]", "value": "low background tissue uptake"},
      {"measurement": "Blood clearance / retention", "setting": "[2]", "value": "cleared very rapidly from the blood"},
      {"measurement": "Route of excretion", "setting": "[2]", "value": "primarily excreted through the hepatobiliary system (HBS)"},
      {"measurement": "Tumour uptake and retention", "setting": "[2]", "value": "Some retention was seen within tumour tissue"},
      {"measurement": "% ID Urinary (urinary excretion), mean", "setting": "[2]; 5 min post injection", "value": 7.17, "unit": "% ID"},
      {"measurement": "% ID/g Tumour, mean", "setting": "[2]; 5 min post injection", "value": 0.6, "unit": "% ID/g"},
      {"measurement": "Tumour/Blood, mean", "setting": "[2]; 5 min post injection", "value": 0.32},
      {"measurement": "Tumour/Heart, mean", "setting": "[2]; 5 min post injection", "value": 0.27},
      {"measurement": "Tumour/Lung, mean", "setting": "[2]; 5 min post injection", "value": 0.22},
      {"measurement": "Tumour/Muscle, mean", "setting": "[2]; 5 min post injection", "value": 1.19},
      {"measurement": "% ID Urinary (urinary excretion), mean", "setting": "[2]; 30 min post injection", "value": 6.89, "unit": "% ID"},
      {"measurement": "% ID/g Tumour, mean", "setting": "[2]; 30 min post injection", "value": 0.56, "unit": "% ID/g"},
      {"measurement": "Tumour/Blood, mean", "setting": "[2]; 30 min post injection", "value": 0.59},
      {"measurement": "Tumour/Heart, mean", "setting": "[2]; 30 min post injection", "value": 0.57},
      {"measurement": "Tumour/Lung, mean", "setting": "[2]; 30 min post injection", "value": 0.39},
      {"measurement": "Tumour/Muscle, mean", "setting": "[2]; 30 min post injection", "value": 1.6},
      {"measurement": "% ID Urinary (urinary excretion), mean", "setting": "[2]; 60 min post injection", "value": 5.5, "unit": "% ID"},
      {"measurement": "% ID/g Tumour, mean", "setting": "[2]; 60 min post injection", "value": 0.48, "unit": "% ID/g"},
      {"measurement": "Tumour/Blood, mean", "setting": "[2]; 60 min post injection", "value": 0.46},
      {"measurement": "Tumour/Heart, mean", "setting": "[2]; 60 min post injection", "value": 0.68},
      {"measurement": "Tumour/Lung, mean", "setting": "[2]; 60 min post injection", "value": 0.37},
      {"measurement": "Tumour/Muscle, mean", "setting": "[2]; 60 min post injection", "value": 1.41},
      {"measurement": "% ID Urinary (urinary excretion), mean", "setting": "[2]; 120 min post injection", "value": 7.22, "unit": "% ID"},
      {"measurement": "% ID/g Tumour, mean", "setting": "[2]; 120 min post injection", "value": 0.6, "unit": "% ID/g"},
      {"measurement": "Tumour/Blood, mean", "setting": "[2]; 120 min post injection", "value": 0.66},
      {"measurement": "Tumour/Heart, mean", "setting": "[2]; 120 min post injection", "value": 1.23},
      {"measurement": "Tumour/Lung, mean", "setting": "[2]; 120 min post injection", "value": 0.85},
      {"measurement": "Tumour/Muscle, mean", "setting": "[2]; 120 min post injection", "value": 1.87},
      {"measurement": "% ID/G Carotid, mean", "setting": "[3]; [6]", "value": 2.67, "unit": "% ID/G"},
      {"measurement": "Carotid/Blood, mean", "setting": "[3]; [6]", "value": 0.94},
      {"measurement": "Carotid/Heart, mean", "setting": "[3]; [6]", "value": 0.48},
      {"measurement": "Carotid/Lung, mean", "setting": "[3]; [6]", "value": 0.62},
      {"measurement": "% ID/G Carotid, mean", "setting": "[3]; [7]", "value": 2.00, "unit": "% ID/G"},
      {"measurement": "Carotid/Blood, mean", "setting": "[3]; [7]", "value": 1.97},
      {"measurement": "Carotid/Heart, mean", "setting": "[3]; [7]", "value": 1.03},
      {"measurement": "Carotid/Lung, mean", "setting": "[3]; [7]", "value": 1.71},
      {"measurement": "% ID/G Carotid, mean", "setting": "[3]; [8]", "value": 0.25, "unit": "% ID/G"},
      {"measurement": "Carotid/Blood, mean", "setting": "[3]; [8]", "value": 0.19},
      {"measurement": "Carotid/Heart, mean", "setting": "[3]; [8]", "value": 0.21},
      {"measurement": "Carotid/Lung, mean", "setting": "[3]; [8]", "value": 0.17},
      {"measurement": "Metabolites detected in bile samples", "setting": "[4]; in vivo", "value": 4},
      {"measurement": "Metabolites detected in plasma samples", "setting": "[4]; in vivo", "value": "One metabolite"},
      {"measurement": "Free iodide in plasma samples", "setting": "[4]; in vivo, through time", "value": "increasing amount of free iodide"},
      {"measurement": "In vivo stability and metabolism", "setting": "[4]; through time in vivo", "value": "slight instability and metabolism"},
      {"measurement": "Tumour hotspots on imaging", "setting": "[5]", "value": "seen from 5 to 120 minutes post injection"}
    ]}
  ]
}
